Laboratory results: PubChem BioAssay AID210 (DTP/NCI, 2004)
Several values for one entry are separate records, joined by “and”; a condition that tells them apart may be missing. Equal entries are not always repeated. Inconclusive results and toxic doses are left out.

System: CD2F1 mice, ip Colon 26 adenocarcinoma, median survival T/C
Experiment: NCI In Vivo Anticancer Drug Screen. Data for tumor model Colon 26 Adenocarcinoma (intraperitoneal) in CD2F1 (CDF1) mice
Conditions: endpoint: median survival time, higher = longer survival
Experimental: The antitumor activity of compounds was measured in mice bearing transplantable tumors. Survival or tumor size were measured and the results are expressed as the measurement made in the treated group (T) divided by the measurement made in the vehicle treated control group (C). The tumor model used in this assay is Colon 26 Adenocarcinoma (intraperitoneal) in CD2F1 (CDF1) mice

O=C(O)C1(C(=O)O)CCC1.[NH2-].[NH2-].[Pt+2]
T/C (dose: 5.85 mg/kg/injection, schedule: Q04DX003 (iv), vehicle: saline): 96 % of control
T/C (dose: 8.78 mg/kg/injection, schedule: Q04DX003 (iv), vehicle: saline): 102 % of control
T/C (dose: 10.0 mg/kg/injection, schedule: Q01DX004 (ip), vehicle: saline): 110 % of control
T/C (dose: 11.7 mg/kg/injection, schedule: Q01DX001 (ip), vehicle: saline): 105 % of control
T/C (dose: 13.2 mg/kg/injection, schedule: Q04DX003 (iv), vehicle: saline): 105 % of control
T/C (dose: 17.6 mg/kg/injection, schedule: Q01DX001 (ip), vehicle: saline): 102 % of control
T/C (dose: 17.6 mg/kg/injection, schedule: Q01DX001 (iv), vehicle: saline): 91 % of control
T/C (dose: 19.8 mg/kg/injection, schedule: Q04DX003 (ip), vehicle: saline): 171 % of control
T/C (dose: 19.8 mg/kg/injection, schedule: Q04DX003 (iv), vehicle: saline): 117 % of control
T/C (dose: 20.0 mg/kg/injection, schedule: Q01DX004 (ip), vehicle: saline): 225 % of control
T/C (dose: 25.0 mg/kg/injection, schedule: Q04DX003 (ip), vehicle: dextrose): 203 % of control
T/C (dose: 26.3 mg/kg/injection, schedule: Q01DX001 (ip), vehicle: saline): 109 % of control and 217 % of control
T/C (dose: 26.3 mg/kg/injection, schedule: Q01DX001 (iv), vehicle: saline): 118 % of control and 94 % of control
T/C (dose: 29.6 mg/kg/injection, schedule: Q04DX003 (ip), vehicle: saline): 225 % of control
T/C (dose: 29.6 mg/kg/injection, schedule: Q04DX003 (iv), vehicle: saline): 162 % of control
T/C (dose: 30.0 mg/kg/injection, schedule: Q04DX004 (iv), vehicle: other): 154 % of control
T/C (dose: 33.0 mg/kg/injection, schedule: Q04DX002 (iv), vehicle: other): 109 % of control
T/C (dose: 39.5 mg/kg/injection, schedule: Q01DX001 (ip), vehicle: saline): 168 % of control
T/C (dose: 39.5 mg/kg/injection, schedule: Q01DX001 (iv), vehicle: saline): 95 % of control
T/C (dose: 40.0 mg/kg/injection, schedule: Q01DX004 (ip), vehicle: saline): 380 % of control
T/C (dose: 44.0 mg/kg/injection, schedule: Q04DX004 (iv), vehicle: other): 226 % of control
T/C (dose: 44.4 mg/kg/injection, schedule: Q04DX003 (ip), vehicle: saline): 257 % of control
T/C (dose: 44.4 mg/kg/injection, schedule: Q04DX003 (iv), vehicle: saline): 188 % of control
T/C (dose: 50.0 mg/kg/injection, schedule: Q04DX003 (ip), vehicle: dextrose): 228 % of control
T/C (dose: 59.3 mg/kg/injection, schedule: Q01DX001 (ip), vehicle: saline): 217 % of control
T/C (dose: 59.3 mg/kg/injection, schedule: Q01DX001 (iv), vehicle: saline): 103 % of control and 118 % of control
T/C (dose: 60.0 mg/kg/injection, schedule: Q01DX004 (ip), vehicle: saline): 324 % of control
T/C (dose: 65.0 mg/kg/injection, schedule: Q04DX004 (iv), vehicle: other): 253 % of control
T/C (dose: 66.7 mg/kg/injection, schedule: Q04DX003 (ip), vehicle: saline): 151 % of control
T/C (dose: 87.0 mg/kg/injection, schedule: Q04DX002 (iv), vehicle: other): 183 % of control
T/C (dose: 88.9 mg/kg/injection, schedule: Q01DX001 (ip), vehicle: saline): 217 % of control and 257 % of control
T/C (dose: 88.9 mg/kg/injection, schedule: Q01DX001 (iv), vehicle: saline): 102 % of control
T/C (dose: 100.0 mg/kg/injection, schedule: Q04DX003 (ip), vehicle: saline): 257 % of control
T/C (dose: 100.0 mg/kg/injection, schedule: Q04DX003 (iv), vehicle: saline): 168 % of control
T/C (dose: 133.0 mg/kg/injection, schedule: Q01DX001 (ip), vehicle: saline): 217 % of control and 257 % of control
T/C (dose: 133.0 mg/kg/injection, schedule: Q01DX001 (iv), vehicle: saline): 121 % of control and 257 % of control
T/C (dose: 200.0 mg/kg/injection, schedule: Q01DX001 (ip), vehicle: saline): 217 % of control and 257 % of control

COC(=O)C(F)C(Br)C(=O)OC (stereo unspecified)
T/C (dose: 6.25 mg/kg/injection, schedule: Q04DX003 (ip), vehicle: saline with Tween-80): 102 % of control
T/C (dose: 12.5 mg/kg/injection, schedule: Q04DX003 (ip), vehicle: saline with Tween-80): 102 % of control
T/C (dose: 25.0 mg/kg/injection, schedule: Q04DX003 (ip), vehicle: saline with Tween-80): 111 % of control
T/C (dose: 50.0 mg/kg/injection, schedule: Q04DX003 (ip), vehicle: saline with Tween-80): 114 % of control
